The text below walks through data of patent publication US20080214394A1, “N-(4-Pyridyl)Methylsulfonamides For Combating Arthropodal Pests” (BASF Aktiengesellschaft, priority 2005, published 2008).

Assay [1] concerns Boll Weevil (Anthonomus grandis). As to the kind of experiment: whole plant or invertebrate. The format is in vivo. Conditions: eggs sprayed with 20 μl, 3 to 5 days.
The subject of assay [2] is Tobacco Budworm (Heliothis virescens). Nature of the assay: whole plant or invertebrate. The format is in vivo. The following applies: 144 h, eggs sprayed with 10 μl, 6 days.

Consider `O=S(=O)(NCc1ccnc2ccccc12)c1ccc(Br)s1` [Compound I-70, 5-bromo-thiophene-2-sulfonic acid (quinoline-4-ylmethyl)-amide], for which the mortality at 2500 ppm in assay [1] is more than 50%; in assay [2] it was more than 75%.
